Measured values: patent US20200197409A1, “HEPATITIS B VIRUS SURFACE ANTIGEN INHIBITOR” (FUJIAN COSUNTER PHARMACEUTICAL CO., LTD., priority 2017, published 2020)

What was measured:
HBV = assay: In vivo pharmacodynamic study of hydrodynamic injection mouse HBV model (HDI-HBV) via tail vein; design: species or system Balb/c mice; conditions: mouse plasma
Procedure: Anti-hepatitis B virus activity of the compound of the embodiment in vivo was evaluated by HDI mice model.
Balb/c mice, 10% HP—F-CD as vehicle, test compound, RG7834, ETV (Entecavir), pAAV2-HBV 1.3mer plasmid (extracted with Qiagen EndoFree Plasmid Giga kit), main reagents including QIAamp96 DNA kit and FasStart Universal Probe Mast (ROX). The main instruments used in this experiment included centrifuge (Beckman Allegra X-15R), tissue grinder (QIAGEN-Tissue lyser II) and spectrophotometer (Thermo-NANODROP 1000).
b) On day 0, all mice were subjected to hydrodynamic injection with HBV plasmid DNA solution via tail vein. The plasmid DNA was pre-treated with sterile physiological saline before injection and stored at 4° C. until use. Plasmid DNA solution was injected via the tail vein at a dose of 8% of the body weight of the mouse within 5 seconds.
c) On the 1st day to the 7th day, the mice were administered with the compound or solvent by oral gavage for 7 days.
d) On the 1st day, 3rd day and 5th day, the blood was collected from the submandibular vein of the mice, and heparin sodium was used as an anticoagulant. The blood sample was centrifuged at 7,000×g, 4° C. to prepare the plasma for the determination of HBV DNA.
e) On the 7^h day, all mice were euthanized by CO2. The blood was collected from the heart to prepare plasma, and the liver tissue was collected. Two left hepatic lobe were isolated, the size of which was 70-100 mg, and were frozen by liquid nitrogen immediately after collection. One of the hepatic lobe was used for HBV DNA detection, and the other was used for backup.
The content of HBsAg in the serum of the mice was determined by ELISA (enzyme linked immunosorbent assay). The experimental procedure refers to the specification of HBsAg ELISA kit.
The inhibitory activity of the test compound on HBV replication on the mouse HDI model was determined by measuring the content of HBsAg in the plasma of the mice.

[1] = 14-day pre-toxicology tolerance test on rat; format: in vivo; conditions: once a day for 14 days, male rats
Procedure: [table] A total of 21 animals in this experiment were randomly divided into 7 groups. The animals were orally administered with the test compounds once a day for 14 consecutive days, and the toxicity was evaluated. Animal necropsy and tissue would be taken from the fixative, repaired, dehydrated, embedded, sectioned, stained and microscopically examined. These tissues included the liver, heart and lung of all animals, and spleen, stomach, duodenum, jejunum, ileum, and kidney of partial animals.

CYP2D6 = target: T1, CYP2D6 (Homo sapiens, UniProt P10635); assay: Inhibition of cytochrome P450 isoenzyme in human liver microsomes; format: in vitro ADME
T1 construct: from tissue; host or cells: human liver microsomes
T1 sequence (P10635 whole entry): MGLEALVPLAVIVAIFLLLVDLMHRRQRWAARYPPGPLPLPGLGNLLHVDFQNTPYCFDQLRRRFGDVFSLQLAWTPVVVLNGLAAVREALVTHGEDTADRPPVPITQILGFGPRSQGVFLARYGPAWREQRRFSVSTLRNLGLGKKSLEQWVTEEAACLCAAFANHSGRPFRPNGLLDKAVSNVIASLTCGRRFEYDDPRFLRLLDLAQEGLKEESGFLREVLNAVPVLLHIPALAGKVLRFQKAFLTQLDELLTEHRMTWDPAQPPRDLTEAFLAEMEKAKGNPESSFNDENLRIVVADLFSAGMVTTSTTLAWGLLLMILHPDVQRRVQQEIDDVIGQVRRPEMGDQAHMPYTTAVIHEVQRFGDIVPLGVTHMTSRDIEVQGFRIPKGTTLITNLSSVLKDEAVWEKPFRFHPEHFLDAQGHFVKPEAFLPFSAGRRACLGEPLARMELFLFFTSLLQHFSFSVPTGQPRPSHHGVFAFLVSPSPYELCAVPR
Procedure: (§1) The inhibitory effect of the test compound on different subtypes of human cytochrome P450 isoenzyme was determined. Working solutions of the test compound, standard inhibitor (100×final concentration) and a mixed substrate were prepared. Microsomes frozen in a −80° C. refrigerator were thawed. 2 μL of test compound and the standard inhibitor solution were added into the corresponding wells, while 2 μL of the corresponding solvent was added into the non-inhibitor control well (NIC) and the blank control well (Blank). 20 μL of the mixed substrate solution was added into the corresponding wells except for the Blank well (20 μL of PB was added into the Blank well). Human liver microsomes solution was prepared (it was put back to the refrigerator immediately after use and the date was marked) and 158 μL of human liver microsomes solution were added into all of the wells immediately. The sample plate was pre-incubated under a 37° C. water bath, during which coenzyme factor (NADPH) solution was prepared immediately. After 10 minutes, 20 μL of coenzyme factor (NADPH) solution was added into all of the wells. After the sample plate was shaken evenly, it was incubated under a 37° C. water bath for 10 minutes. 400 μL of cold acetonitrile solution (the internal standard was 200 ng/mL Tolbutamide and Labetalol) was added to terminate the reaction at the corresponding time. After the sample plate was well-mixed, it was centrifuged at 4,000 rpm for 20 minutes to precipitate the protein. 200 μL of the supernatant was collected and added to 100 μL of water, and subjected to LC/MS/MS measurement after being shaken evenly.

CYP1A2 = target: T2, CYP1A2 (Homo sapiens, UniProt P05177); assay: as above; format: in vitro ADME
T2 construct: from tissue; host or cells: human liver microsomes
T2 sequence (P05177 1-516): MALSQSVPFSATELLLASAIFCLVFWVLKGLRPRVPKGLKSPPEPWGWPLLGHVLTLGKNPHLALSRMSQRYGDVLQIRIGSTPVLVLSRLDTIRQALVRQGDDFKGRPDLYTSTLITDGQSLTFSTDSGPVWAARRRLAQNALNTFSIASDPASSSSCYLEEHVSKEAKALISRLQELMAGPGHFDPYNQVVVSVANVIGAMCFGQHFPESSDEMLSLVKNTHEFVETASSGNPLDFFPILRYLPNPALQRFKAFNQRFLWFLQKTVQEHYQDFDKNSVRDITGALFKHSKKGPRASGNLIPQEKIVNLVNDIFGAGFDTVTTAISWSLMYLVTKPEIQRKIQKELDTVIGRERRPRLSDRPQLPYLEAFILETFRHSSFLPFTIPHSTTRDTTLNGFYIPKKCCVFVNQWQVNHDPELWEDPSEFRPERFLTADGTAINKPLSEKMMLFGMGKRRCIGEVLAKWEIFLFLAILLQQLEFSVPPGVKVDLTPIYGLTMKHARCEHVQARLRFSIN
Procedure: as §1

CYP2C19 = target: T3, CYP2C19 (Homo sapiens, UniProt P33261); assay: as above; format: in vitro ADME
T3 construct: from tissue; host or cells: human liver microsomes
T3 sequence (P33261 whole entry): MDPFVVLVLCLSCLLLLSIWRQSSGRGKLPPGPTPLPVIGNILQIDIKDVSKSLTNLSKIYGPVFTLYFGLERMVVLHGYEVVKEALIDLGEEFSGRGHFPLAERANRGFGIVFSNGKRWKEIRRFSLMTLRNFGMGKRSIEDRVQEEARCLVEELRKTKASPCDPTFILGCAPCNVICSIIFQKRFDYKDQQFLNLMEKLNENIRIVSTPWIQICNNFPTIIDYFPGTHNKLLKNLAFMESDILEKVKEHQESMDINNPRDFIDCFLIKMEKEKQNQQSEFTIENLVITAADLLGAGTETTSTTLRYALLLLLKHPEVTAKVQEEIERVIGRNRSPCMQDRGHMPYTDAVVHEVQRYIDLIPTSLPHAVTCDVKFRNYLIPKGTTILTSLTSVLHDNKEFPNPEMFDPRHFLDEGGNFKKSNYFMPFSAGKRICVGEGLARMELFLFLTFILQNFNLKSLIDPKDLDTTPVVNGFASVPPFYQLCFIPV
Procedure: as §1

CYP3A4-M = target: T4, CYP3A4-M (Homo sapiens, UniProt P08684); assay: as above; format: in vitro ADME
T4 construct: from tissue; host or cells: human liver microsomes
T4 sequence (P08684 whole entry): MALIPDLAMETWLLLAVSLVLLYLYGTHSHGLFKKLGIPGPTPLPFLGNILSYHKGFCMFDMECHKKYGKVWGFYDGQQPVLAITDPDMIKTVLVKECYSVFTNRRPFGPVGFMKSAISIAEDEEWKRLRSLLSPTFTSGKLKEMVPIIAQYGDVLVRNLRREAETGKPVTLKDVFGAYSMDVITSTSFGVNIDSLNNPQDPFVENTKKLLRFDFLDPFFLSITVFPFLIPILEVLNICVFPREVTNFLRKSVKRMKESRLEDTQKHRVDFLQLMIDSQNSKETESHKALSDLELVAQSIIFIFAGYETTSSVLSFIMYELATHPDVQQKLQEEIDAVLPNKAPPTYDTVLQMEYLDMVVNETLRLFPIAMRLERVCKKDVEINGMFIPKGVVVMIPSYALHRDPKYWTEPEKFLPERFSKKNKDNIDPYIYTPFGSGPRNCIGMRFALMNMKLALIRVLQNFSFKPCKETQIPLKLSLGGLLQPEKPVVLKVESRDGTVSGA
Procedure: as §1

CYP2C9 = target: T5, CYP2C9 (Homo sapiens, UniProt P11712); assay: as above; format: in vitro ADME
T5 construct: from tissue; host or cells: human liver microsomes
T5 sequence (P11712 whole entry): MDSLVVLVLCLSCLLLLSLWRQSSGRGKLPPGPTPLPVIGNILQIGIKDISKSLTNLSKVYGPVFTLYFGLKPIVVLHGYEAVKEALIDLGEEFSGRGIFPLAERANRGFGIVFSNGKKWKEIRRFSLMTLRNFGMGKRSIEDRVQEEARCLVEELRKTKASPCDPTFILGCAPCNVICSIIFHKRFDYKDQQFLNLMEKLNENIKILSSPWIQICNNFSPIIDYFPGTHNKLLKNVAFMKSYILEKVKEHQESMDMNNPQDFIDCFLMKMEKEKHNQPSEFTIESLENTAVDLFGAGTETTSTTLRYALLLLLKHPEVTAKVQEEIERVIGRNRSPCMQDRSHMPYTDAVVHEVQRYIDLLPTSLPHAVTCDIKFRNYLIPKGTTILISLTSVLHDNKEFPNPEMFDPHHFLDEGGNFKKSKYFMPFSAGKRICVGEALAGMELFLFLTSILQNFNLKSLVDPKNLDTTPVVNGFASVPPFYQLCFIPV
Procedure: as §1

[2] = Single dose neurotoxicity test on rats (functional observation combination test, FOB); format: in vivo; conditions: 24 hours after single intragastric dose of 1000 mg/kg and 300 mg/kg, male SD rats
Procedure: In this experiment, SD rats were intragastrically administrated with RG7834 and Embodiment 6 in a single dose, and the potential neurobehavioral toxicities to SD rats were evaluated by functional observation combination test (FOB). A total of 25 SD male rats were used in this experiment. At the start of the administration, the animals were about 7 to 8 weeks old, males weighed between 225.50 and 285.70 g, and […]. […] The animals in the control group were administered with the menstruum. All animals were administered at a volume of 10 mL/kg, and subjected to the FOB test.

With COCCCOc1cc2c(cc1OC)-c1cc(=O)c(C(=O)O)cn1[C@H](C(C)(C)C)CO2 [Embodiment 6] the “Log HBsAg (IU/mL) (Ave. value)” value (HBV; dosing time day 1, 30 mg/kg QD gavage) was 3.86 IU/mL, the “Log HBsAg (IU/mL) (Ave. value)” value (HBV; dosing time day 3, 30 mg/kg QD gavage) was 4.09 IU/mL and the “Log HBsAg (IU/mL) (Ave. value)” value (HBV; dosing time day 5, 30 mg/kg QD gavage) was 3.27 IU/mL. For the same compound, the “Log HBsAg (IU/mL) (Ave. value)” value (HBV; dosing time day 7, 30 mg/kg QD gavage) was 1.07 IU/mL, the “histopathological changes associated with the test compound” value ([1]; high dose group (1000 mg/kg)) was “little or mild decrease of white pulp lymphocytes in the spleen” and the “histopathological changes associated with the test compound” value ([1]; medium and low dose groups (300 and 100 mg/kg), heart, liver and lung examined) was “no histopathological changes associated with the test compound were observed”. The IC50 (CYP2D6) was > 50 µM, the IC50 (CYP1A2) was > 50 µM and the IC50 (CYP2C19) was > 50 µM. The IC50 (CYP3A4-M) was > 50 µM, the IC50 (CYP2C9) was > 50 µM and the “magnification of the pupil associated with the test compound” value [2] was “did not appear”.
